How the values were obtained:
[1] = Stability test of oleocanthal and oleacein in NaDES or water, 30 days; assay type: physicochemical; settings: after 30 days, 10 mM
Protocol: Oleocanthal and oleacein were dissolved at a final concentration equal to 10 mM in water or in NaDES (Betaine/Propylene glycol, Bet/Prop) and subjected to stability test.

[2] = Additional stability tests of oleocanthal and oleacein in water or formulated product (NaDES), 6 months; assay type: physicochemical; settings: for degradation with respect to control at time zero: formulated product (NaDES betaine/propylene glycol 1:3.3); for degradation: in water
Protocol: FIG. 4. Stability over time (6 months) of oleacein and oleocanthal at 25° C. and 40° C. in water and in the formulated product (serum NaDES diluted in almond oil). The values represent standard averages and deviations (N=3). The significance tests were performed with one-way ANOVA (p<=0.05).
Additional stability tests of oleocanthal and oleacein in water or in NaDES (that is in NaDES mixture comprising betaine/propylene glycol 1:3.3) were performed for 6 months, at different temperatures. The results obtained from the stability tests over time (6 months) of oleacein and oleocanthal, at two different temperatures (25° C. and 40° C. (accelerated stability)), in water and in the formulated product, are shown in FIG. 4. […] In particular, in water, after six months at 25° C., there is a degradation of oleacein and oleocanthal by about 70% and l′80%, respectively. At 40° C. the degradation results to be still more evident: about 90% for oleacein and 80% for oleocanthal. On the contrary, in the product formulated according to the present invention (NaDES betaine/propylene glycol 1:3.3), the degradation of the active principles, with respect to control at time zero, results to be modest at 25° C. and by about 50% and 30% for oleacein and oleocanthal respectively at 40° C.

[3] = NaDES betaine/propylene glycol (1:3.3), 25° C.
[4] = NaDES betaine/propylene glycol (1:3.3), 40° C.

CC=C(C=O)C(CC=O)CC(=O)OCCc1ccc(O)c(O)c1 (stereo in doubt) [Oleacein]
% loss ([1]; H2O, 25° C.): 8.1%
% loss ([1]; H2O, 40° C.): 38.1%
% loss [1, 3]: ~0%
% loss [1, 4]: 4.5%
degradation with respect to control at time zero ([2]; six months at 25° C.): modest
degradation with respect to control at time zero ([2]; six months at 40° C.): about 50%
degradation ([2]; after six months at 25° C.): about 70%
degradation ([2]; six months at 40° C.): about 90%

C/C=C(/C=O)[C@@H](CC=O)CC(=O)OCCc1ccc(O)cc1 [Oleocanthal]
% loss ([1]; H2O, 25° C.): 7.5%
% loss ([1]; H2O, 40° C.): 32.6%
% loss [1, 3]: ~0%
% loss [1, 4]: 1.4%
degradation with respect to control at time zero ([2]; six months at 25° C.): modest
degradation with respect to control at time zero ([2]; six months at 40° C.): ~30%
degradation ([2]; after six months at 25° C.): ~80%
degradation ([2]; six months at 40° C.): ~80%

From US20250302904A1, “EXTRACTS IN EUTECTIC SOLVENT OF OLIVE OIL POLYPHENOLS, COMPOSITIONS, USES AND METHODS OF PREPARATION THEREOF” (ACTIVE-ITALIA S.R.L., priority 2022, published 2025)
